The results in this text go back to ChEMBL document CHEMBL3045698, “Structure and synthesis of a potent glutamate receptor antagonist in wasp venom” (Proc Natl Acad Sci U S A, 1988).

Assay [1] relates to Schistocerca gregaria. As to the kind of experiment: Inhibition of quisqualate-sensitive glutamate receptor in Schistocerca gregaria (desert locust) muscle assessed as reduction in neurally-evoked teitch contraction of locust metathoracic retractor unguis muscle at 0.1 Hz to 0.6 Hz stimulation frequency at 25 uM.
In assay [2] the test system is Schistocerca gregaria. Briefly: Inhibition of quisqualate-sensitive glutamate receptor in Schistocerca gregaria (desert locust) muscle assessed as reduction in glutamate-evoked teitch contraction of locust metathoracic retractor unguis muscle at 0.1 Hz to 0.6 Hz stimulation frequency at 10 uM.

Active and inactive are the calls of the source. The rule behind the calls is not given here.

Take `CCCC(=O)N[C@@H](Cc1ccc(O)cc1)C(=O)NCCCNCCCCNCCCN`: the inhibition (usually the drop in the measured response relative to a control, in per cent) in assay [1] was “Active”.

For the compound `CCCC(=O)N[C@@H](Cc1ccc(O)cc1)C(=O)NCCCCNCCCNCCCN`, in assay [2], the inhibition was greater than 90%. Moreover, in assay [1], the inhibition entry is “Active”.

With `CCCC(=O)N[C@@H](Cc1ccc(O)cc1)C(=O)NCCCNCCCNCCCCN`, in assay [1], the inhibition entry was “Active”.
